Paper PMC2922070 (Journal of peptide science : an official publication of the …, 2009)

Columns and labels:
Format in all cases: biochemical
[1] = target: T1, MK2 (Homo sapiens, UniProt P49137); experiment: Radiometric IC50 determination
[2] = target: T1, MK2; experiment: Radiometric kinase activity; conditions: ± S.D. between two samples, SD
[3] = target: MK3 (Homo sapiens, UniProt Q16644); experiment: Radiometric kinase activity; conditions: ± S.D. between two samples, SD
[4] = target: CaMKI (Homo sapiens, UniProt Q14012); experiment: Radiometric kinase activity; conditions: ± S.D. between two samples, SD
CaMKI, sequence (Q14012 whole entry): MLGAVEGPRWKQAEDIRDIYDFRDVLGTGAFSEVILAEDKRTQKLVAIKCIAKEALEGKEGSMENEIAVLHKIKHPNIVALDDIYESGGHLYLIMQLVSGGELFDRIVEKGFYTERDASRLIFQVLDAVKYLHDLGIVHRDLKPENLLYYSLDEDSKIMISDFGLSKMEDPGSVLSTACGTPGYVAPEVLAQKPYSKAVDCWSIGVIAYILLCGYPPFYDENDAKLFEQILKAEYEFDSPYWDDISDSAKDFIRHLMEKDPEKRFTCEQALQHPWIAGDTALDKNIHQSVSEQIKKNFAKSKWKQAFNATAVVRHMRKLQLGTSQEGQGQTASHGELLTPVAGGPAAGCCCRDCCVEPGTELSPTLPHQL

[5] = target: T2, MK5 (Homo sapiens, UniProt Q8IW41); experiment: Radiometric kinase activity; conditions: ± S.D. between two samples, SD
T2 sequence (Q8IW41 1-473): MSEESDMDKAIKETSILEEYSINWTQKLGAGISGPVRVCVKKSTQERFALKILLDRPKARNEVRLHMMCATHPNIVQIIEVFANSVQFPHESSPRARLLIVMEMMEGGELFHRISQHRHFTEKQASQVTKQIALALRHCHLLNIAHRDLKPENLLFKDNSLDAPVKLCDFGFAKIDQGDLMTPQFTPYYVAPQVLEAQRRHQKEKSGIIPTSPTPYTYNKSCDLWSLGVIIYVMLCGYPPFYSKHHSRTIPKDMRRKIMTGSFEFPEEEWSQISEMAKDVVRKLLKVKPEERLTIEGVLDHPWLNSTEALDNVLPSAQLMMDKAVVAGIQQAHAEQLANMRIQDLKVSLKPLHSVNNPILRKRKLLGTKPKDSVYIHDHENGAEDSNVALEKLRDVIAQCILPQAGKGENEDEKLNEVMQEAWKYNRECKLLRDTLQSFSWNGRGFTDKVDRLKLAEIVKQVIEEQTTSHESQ

[6] = target: SAPK2a (p38α) (Homo sapiens, UniProt Q16539); experiment: Radiometric kinase activity; conditions: ± S.D. between two samples, SD
SAPK2a (p38α), sequence (Q16539 whole entry): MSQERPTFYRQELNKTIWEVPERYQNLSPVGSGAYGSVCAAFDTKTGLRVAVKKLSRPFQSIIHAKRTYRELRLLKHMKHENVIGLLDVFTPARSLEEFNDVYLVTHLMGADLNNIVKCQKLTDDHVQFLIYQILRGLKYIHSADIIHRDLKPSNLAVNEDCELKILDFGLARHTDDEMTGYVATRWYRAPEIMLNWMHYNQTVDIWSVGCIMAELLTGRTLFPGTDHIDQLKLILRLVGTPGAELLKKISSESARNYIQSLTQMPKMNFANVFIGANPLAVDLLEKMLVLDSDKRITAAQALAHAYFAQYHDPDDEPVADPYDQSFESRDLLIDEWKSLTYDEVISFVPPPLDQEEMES

[7] = target: T3, IRAK4 (Homo sapiens, UniProt Q9NWZ3); experiment: Radiometric kinase activity; conditions: ± S.D. between two samples, SD
T3 sequence (Q9NWZ3 1-460): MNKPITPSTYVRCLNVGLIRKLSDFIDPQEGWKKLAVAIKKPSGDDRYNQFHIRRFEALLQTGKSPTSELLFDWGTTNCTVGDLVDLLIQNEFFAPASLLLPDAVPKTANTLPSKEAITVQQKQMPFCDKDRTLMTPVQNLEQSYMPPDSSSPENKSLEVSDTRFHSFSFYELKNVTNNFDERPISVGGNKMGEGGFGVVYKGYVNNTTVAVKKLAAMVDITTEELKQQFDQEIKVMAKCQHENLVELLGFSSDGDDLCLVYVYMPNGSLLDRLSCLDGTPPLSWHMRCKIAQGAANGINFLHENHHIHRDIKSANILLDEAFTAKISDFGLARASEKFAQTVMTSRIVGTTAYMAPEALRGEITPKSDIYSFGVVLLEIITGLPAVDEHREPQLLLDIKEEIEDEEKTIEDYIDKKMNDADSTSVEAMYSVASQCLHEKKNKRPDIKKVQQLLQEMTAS

[8] = target: MLCK (Homo sapiens, UniProt Q9H1R3); experiment: Radiometric kinase activity; conditions: ± S.D. between two samples, SD
MLCK, sequence (Q9H1R3 2-596): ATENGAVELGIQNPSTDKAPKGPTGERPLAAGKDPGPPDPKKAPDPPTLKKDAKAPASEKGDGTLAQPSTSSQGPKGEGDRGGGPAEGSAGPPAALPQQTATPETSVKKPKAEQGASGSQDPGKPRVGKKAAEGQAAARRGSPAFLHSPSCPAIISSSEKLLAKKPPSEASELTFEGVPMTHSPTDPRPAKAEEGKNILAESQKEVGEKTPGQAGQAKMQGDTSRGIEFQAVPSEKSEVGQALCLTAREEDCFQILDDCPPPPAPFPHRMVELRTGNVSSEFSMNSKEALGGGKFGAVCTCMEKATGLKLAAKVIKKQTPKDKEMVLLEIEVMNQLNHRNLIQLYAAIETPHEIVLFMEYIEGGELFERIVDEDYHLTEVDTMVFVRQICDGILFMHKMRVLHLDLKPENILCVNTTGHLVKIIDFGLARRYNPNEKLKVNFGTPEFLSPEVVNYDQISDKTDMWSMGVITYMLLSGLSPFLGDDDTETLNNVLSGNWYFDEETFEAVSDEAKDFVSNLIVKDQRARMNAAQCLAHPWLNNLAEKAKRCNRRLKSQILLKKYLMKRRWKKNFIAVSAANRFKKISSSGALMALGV

[9] = target: PKBβ (Homo sapiens, UniProt P31751); experiment: Radiometric kinase activity; conditions: SD; for Percentage kinase activity, PKBβ: peptide 300 μM, ± S.D. between two samples
PKBβ, sequence (P31751 whole entry): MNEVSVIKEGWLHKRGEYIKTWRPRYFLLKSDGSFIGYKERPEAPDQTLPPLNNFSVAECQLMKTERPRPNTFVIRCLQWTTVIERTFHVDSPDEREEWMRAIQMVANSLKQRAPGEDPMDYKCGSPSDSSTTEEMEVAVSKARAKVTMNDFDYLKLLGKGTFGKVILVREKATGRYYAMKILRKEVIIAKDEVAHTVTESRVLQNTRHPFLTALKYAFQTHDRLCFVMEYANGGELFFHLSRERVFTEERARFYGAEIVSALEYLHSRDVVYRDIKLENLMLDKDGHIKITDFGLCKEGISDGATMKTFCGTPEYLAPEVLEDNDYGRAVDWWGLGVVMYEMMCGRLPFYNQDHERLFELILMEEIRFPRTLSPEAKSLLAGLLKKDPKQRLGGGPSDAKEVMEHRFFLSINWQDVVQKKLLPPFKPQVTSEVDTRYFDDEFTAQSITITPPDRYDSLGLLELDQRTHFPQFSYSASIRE

[10] = target: PKCδ (Homo sapiens, UniProt Q05655); experiment: Radiometric kinase activity; conditions: ± S.D. between two samples, SD
PKCδ, sequence (Q05655 whole entry): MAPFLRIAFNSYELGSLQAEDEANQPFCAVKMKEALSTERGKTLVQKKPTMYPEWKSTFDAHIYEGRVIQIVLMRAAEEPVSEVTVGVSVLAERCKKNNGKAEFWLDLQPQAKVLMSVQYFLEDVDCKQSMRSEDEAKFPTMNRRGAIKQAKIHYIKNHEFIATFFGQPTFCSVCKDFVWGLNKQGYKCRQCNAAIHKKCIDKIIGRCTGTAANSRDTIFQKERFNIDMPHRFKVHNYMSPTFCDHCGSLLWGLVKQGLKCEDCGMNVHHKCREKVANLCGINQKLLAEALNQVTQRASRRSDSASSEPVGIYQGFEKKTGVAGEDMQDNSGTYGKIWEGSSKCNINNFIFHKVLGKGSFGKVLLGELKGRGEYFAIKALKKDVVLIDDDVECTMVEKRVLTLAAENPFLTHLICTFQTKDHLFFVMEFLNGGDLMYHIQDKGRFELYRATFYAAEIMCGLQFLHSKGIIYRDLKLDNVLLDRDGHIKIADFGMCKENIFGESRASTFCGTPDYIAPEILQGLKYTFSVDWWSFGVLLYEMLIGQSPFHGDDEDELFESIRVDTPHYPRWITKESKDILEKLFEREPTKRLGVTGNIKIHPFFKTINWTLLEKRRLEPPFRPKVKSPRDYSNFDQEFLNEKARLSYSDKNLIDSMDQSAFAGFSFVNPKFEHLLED

[11] = target: ROCK-I (Homo sapiens, UniProt Q13464); experiment: Radiometric kinase activity; conditions: ± S.D. between two samples, SD
ROCK-I, sequence (Q13464 whole entry): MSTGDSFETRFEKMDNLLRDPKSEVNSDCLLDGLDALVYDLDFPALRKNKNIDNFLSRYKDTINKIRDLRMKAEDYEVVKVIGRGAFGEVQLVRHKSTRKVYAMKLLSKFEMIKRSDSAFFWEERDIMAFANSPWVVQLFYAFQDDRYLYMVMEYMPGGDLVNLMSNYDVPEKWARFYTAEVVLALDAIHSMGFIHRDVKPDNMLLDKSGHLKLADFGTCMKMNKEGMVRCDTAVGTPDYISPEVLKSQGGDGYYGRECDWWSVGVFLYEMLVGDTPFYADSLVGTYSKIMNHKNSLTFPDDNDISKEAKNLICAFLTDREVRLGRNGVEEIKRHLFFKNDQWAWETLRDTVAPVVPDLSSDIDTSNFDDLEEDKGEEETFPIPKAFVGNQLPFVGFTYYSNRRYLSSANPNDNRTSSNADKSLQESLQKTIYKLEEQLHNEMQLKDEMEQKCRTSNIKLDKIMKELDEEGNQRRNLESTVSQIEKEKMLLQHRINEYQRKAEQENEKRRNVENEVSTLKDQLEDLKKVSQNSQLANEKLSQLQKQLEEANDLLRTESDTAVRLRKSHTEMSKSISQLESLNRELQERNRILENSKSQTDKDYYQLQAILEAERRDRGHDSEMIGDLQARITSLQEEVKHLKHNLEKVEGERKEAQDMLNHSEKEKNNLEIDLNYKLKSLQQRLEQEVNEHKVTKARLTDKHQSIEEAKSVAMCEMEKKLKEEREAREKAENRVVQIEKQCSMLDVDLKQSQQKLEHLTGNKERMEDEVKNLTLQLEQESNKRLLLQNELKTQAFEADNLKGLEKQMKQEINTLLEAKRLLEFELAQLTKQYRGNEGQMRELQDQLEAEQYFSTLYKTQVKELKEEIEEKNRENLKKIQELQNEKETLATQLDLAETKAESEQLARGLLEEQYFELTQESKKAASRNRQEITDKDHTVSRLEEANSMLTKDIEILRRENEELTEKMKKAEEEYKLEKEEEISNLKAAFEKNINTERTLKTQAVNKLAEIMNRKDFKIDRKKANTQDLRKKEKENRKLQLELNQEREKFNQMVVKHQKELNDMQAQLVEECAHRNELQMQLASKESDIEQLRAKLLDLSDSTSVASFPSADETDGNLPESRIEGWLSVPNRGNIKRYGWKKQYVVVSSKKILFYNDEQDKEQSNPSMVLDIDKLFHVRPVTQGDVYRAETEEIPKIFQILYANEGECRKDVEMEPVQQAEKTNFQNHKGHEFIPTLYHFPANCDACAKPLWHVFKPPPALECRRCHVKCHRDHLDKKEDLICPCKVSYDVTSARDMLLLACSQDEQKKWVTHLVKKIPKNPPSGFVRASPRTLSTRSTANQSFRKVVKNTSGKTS

[12] = target: T1, MK2; experiment: Fluorescence-based kinase activity assay
[13] = read-out: Percentage kinase activity, PKBβ

MK3, sequence (Q16644 whole entry): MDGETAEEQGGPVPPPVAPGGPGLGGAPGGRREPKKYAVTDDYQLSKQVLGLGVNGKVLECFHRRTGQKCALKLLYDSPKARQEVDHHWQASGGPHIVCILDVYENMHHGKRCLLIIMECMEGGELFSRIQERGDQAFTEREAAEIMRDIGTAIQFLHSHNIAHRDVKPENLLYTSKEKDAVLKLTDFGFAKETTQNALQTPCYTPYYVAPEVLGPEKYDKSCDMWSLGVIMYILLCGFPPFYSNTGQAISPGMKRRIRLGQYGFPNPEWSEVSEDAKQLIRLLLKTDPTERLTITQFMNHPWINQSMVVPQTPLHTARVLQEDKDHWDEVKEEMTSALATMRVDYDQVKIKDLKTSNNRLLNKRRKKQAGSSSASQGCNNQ
T1 sequence (P49137 whole entry): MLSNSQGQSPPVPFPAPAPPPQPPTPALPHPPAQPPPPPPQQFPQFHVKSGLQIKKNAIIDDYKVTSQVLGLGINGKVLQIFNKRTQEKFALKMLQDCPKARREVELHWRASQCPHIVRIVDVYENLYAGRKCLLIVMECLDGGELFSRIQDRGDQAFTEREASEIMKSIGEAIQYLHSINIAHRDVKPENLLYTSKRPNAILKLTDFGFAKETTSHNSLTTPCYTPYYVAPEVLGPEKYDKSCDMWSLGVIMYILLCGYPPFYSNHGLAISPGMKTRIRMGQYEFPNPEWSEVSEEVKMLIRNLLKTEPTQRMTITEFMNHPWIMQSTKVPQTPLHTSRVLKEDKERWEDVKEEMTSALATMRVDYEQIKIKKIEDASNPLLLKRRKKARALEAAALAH

Compound | IC50 [1] [nM] | Percentage kinase activity, MK2 ([2]; peptide 300 μM) [%] | Percentage kinase activity, MK3 ([3]; peptide 300 μM) [%] | Percentage kinase activity, MK5 ([5]; peptide 300 μM) [%] | Percentage kinase activity, PKBβ [9] [%] | Percentage kinase activity, MK2 ([2]; peptide 100 μM) [%] | Percentage kinase activity, MK3 ([3]; peptide 100 μM) [%] | Percentage kinase activity, CaMKI ([4]; peptide 100 μM) [%] | Percentage kinase activity, MK5 ([5]; peptide 100 μM) [%] | Percentage kinase activity, SAPK2a (p38α) ([6]; peptide 100 μM) [%] | Percentage kinase activity, IRAK4 ([7]; peptide 100 μM) [%] | Percentage kinase activity, MLCK ([8]; peptide 100 μM) [%] | activity at 100 µM [9, 13] [%] | Percentage kinase activity, PKCδ ([10]; peptide 100 μM) [%] | Percentage kinase activity, ROCK-I ([11]; peptide 100 μM) [%] | further results
CC[C@H](C)[C@H](NC(=O)[C@H](CCCNC(=N)N)NC(=O)[C@H](CCCNC(=N)N)NC(=O)[C@H](CC(C)C)NC(=O)[C@H](Cc1c[nH]c2ccccc12)NC(=O)[C@H](C)NC(=O)[C@H](CCCCN)NC(=O)[C@@H](NC(=O)[C@H](CCCNC(=N)N)NC(=O)[C@H](CCCNC(=N)N)NC(=O)[C@H](CC(C)C)NC(=O)[C@@H](N)Cc1c[nH]c2ccccc12)[C@@H](C)CC)C(=O)N[C@@H](CCCCN)C(=O)N[C@@H](C)C(=O)N[C@@H](CC(C)C)C(=O)N[C@@H](CC(N)=O)C(=O)N[C@@H](CCCNC(=N)N)C(=O)N[C@@H](CCC(N)=O)C(=O)N[C@@H](CC(C)C)C(=O)NCC(=O)N[C@H](C(=O)N[C@@H](C)C(=O)N[C@@H](C)C(N)=O)C(C)C | 740 |  |  |  |  |  |  |  |  |  |  |  |  |  |  | Percentage kinase activity, MK2 ([2]; peptide 30 μM): 2 ± 1%; Percentage kinase activity, MK3 ([3]; peptide 30 μM): 16 ± 2%; Percentage kinase activity, CaMKI ([4]; peptide 30 μM): 9 ± 1%; Percentage kinase activity, MK5 ([5]; peptide 30 μM): 67 ± 9%; Percentage kinase activity, SAPK2a (p38α) ([6]; peptide 30 μM): 61 ± 7%; Percentage kinase activity, IRAK4 ([7]; peptide 30 μM): 12 ± 1%; Percentage kinase activity, MLCK ([8]; peptide 30 μM): 4 ± 1%; activity at 30 µM [9, 13]: 18 ± 2%; Percentage kinase activity, PKCδ ([10]; peptide 30 μM): 11 ± 0%; Percentage kinase activity, ROCK-I ([11]; peptide 30 μM): 0 ± 1%
YARAAARQARAKALARQLGVAA |  | 0 ± 0 | 5 ± 1 | 86 ± 2 | 17 ± 2 |  |  |  |  |  |  |  |  |  |  | Percentage kinase activity, MLCK ([8]; peptide 300 μM): 9 ± 0%
CC(C)C[C@H](NC(=O)[C@H](C)NC(=O)[C@H](CCCCN)NC(=O)[C@H](CCCNC(=N)N)NC(=O)[C@H](Cc1ccc(O)cc1)NC(=O)[C@H](CC(C)C)NC(=O)[C@H](CCCNC(=N)N)NC(=O)[C@H](C)NC(=O)[C@H](C)NC(=O)[C@H](CC(C)C)NC(=O)[C@H](CCCCN)NC(=O)[C@H](C)NC(=O)[C@H](Cc1ccccc1)NC(=O)[C@H](C)NC(=O)[C@@H](N)CCCCN)C(=O)N[C@@H](C)C(=O)N[C@@H](CCCNC(=N)N)C(=O)N[C@@H](CCC(N)=O)C(=O)N[C@@H](CC(C)C)C(=O)NCC(=O)N[C@H](C(=O)N[C@@H](C)C(=O)N[C@@H](C)C(N)=O)C(C)C | 4400 |  |  |  |  | 8 ± 1 | 17 ± 1 | 0 ± 2 | 148 ± 4 | 59 ± 8 | 16 ± 2 | 2 ± 0 | 28 ± 4 | 24 ± 3 | 29 ± 0 | 
CC(C)C[C@H](NC(=O)[C@H](C)NC(=O)[C@H](CCCCN)NC(=O)[C@H](CCCNC(=N)N)NC(=O)[C@H](Cc1ccc(O)cc1)NC(=O)[C@H](CC(C)C)NC(=O)[C@H](CCCNC(=N)N)NC(=O)[C@H](C)NC(=O)[C@H](C)NC(=O)[C@H](CC(C)C)NC(=O)[C@H](CCCCN)NC(=O)[C@H](C)NC(=O)[C@@H](N)Cc1ccccc1)C(=O)N[C@@H](C)C(=O)N[C@@H](CCCNC(=N)N)C(=O)N[C@@H](CCC(N)=O)C(=O)N[C@@H](CC(C)C)C(=O)NCC(=O)N[C@H](C(=O)N[C@@H](C)C(=O)N[C@@H](C)C(N)=O)C(C)C | 1800 |  |  |  |  | 5 ± 2 | 10 ± 1 | 0 ± 2 | 131 ± 4 | 30 ± 6 | 13 ± 4 | 1 ± 1 | 16 ± 5 | 40 ± 2 | 25 ± 2 | 
YGRKKRRQRRR |  |  |  |  |  |  |  |  |  |  |  |  |  |  |  | inhibition of MK2 activity ([12]; peptide 25 μM): 47.7%; inhibition of MK2 activity ([12]; peptide 100 μM): 61.2%
YARAAARQARAKALNRQLGVAA |  | 10 ± 3 | 19 ± 3 | 81 ± 3 | 96 ± 1 |  |  |  |  |  |  |  |  |  |  | Percentage kinase activity, CaMKI ([4]; peptide 300 μM): 8 ± 1%; Percentage kinase activity, SAPK2a (p38α) ([6]; peptide 300 μM): 100 ± 6%; Percentage kinase activity, IRAK4 ([7]; peptide 300 μM): 68 ± 3%; Percentage kinase activity, PKCδ ([10]; peptide 300 μM): 105 ± 2%; Percentage kinase activity, ROCK-I ([11]; peptide 300 μM): 95 ± 7%
